Measured values published in ChEMBL document CHEMBL4813916, “Synthesis and characterization of new potent TLR7 antagonists based on analysis of the binding mode using biomolecular simulations” (Eur J Med Chem, 2021).

Columns and labels:
[1] = molecular target: T1, Toll-like receptor 7 (Homo sapiens, UniProt Q9NYK1); experiment: Antagonist activity at TLR7 (unknown origin)
T1 sequence (Q9NYK1 whole entry): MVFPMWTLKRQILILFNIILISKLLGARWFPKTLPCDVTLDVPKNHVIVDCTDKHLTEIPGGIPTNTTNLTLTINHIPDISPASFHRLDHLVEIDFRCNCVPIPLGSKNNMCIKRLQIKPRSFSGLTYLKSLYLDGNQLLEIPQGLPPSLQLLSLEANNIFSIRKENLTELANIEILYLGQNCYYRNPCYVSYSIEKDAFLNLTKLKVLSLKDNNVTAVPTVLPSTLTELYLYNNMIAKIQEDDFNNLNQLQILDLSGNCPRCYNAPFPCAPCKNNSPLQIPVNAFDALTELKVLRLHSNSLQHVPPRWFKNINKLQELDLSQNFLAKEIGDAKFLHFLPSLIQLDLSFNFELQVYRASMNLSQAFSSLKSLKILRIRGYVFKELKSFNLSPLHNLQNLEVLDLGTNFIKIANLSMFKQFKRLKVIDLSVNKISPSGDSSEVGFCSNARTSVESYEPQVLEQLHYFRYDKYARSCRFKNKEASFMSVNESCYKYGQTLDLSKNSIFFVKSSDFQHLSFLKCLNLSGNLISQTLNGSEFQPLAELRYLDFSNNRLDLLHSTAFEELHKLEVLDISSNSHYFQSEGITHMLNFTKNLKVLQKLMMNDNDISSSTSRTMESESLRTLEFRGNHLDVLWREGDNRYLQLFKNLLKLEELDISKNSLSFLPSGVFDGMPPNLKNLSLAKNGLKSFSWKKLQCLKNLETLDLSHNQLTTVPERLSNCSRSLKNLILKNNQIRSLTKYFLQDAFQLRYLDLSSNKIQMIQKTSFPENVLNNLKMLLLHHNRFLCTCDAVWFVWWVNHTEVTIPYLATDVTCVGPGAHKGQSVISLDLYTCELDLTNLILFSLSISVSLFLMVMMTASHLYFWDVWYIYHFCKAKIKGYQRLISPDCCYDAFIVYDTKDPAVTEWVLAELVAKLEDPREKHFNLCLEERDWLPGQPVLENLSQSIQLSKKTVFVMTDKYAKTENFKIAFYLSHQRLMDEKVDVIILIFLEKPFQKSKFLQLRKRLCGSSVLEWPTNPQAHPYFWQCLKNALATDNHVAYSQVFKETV

[2] = molecular target: T1, Toll-like receptor 7; experiment: Antagonist activity at human TLR7 expressed in HEK-blue-HTLR7 cells assessed as inhibition of CL264-induced NFkappaB activation measured after 24 hrs by secreted alkaline phosphatase reporter assay; format: cell-based

SMILES | IC50 [1] | IC50 [2]
CC(C)Cn1cnc2c(=O)oc3ccccc3c21 | 23 µM | 
CCCSc1nc2c(O)nnc(O)c2n1Cc1ccccc1 | 110 µM | 
COc1cc2c(N3CCN(C(=O)OC(C)(C)C)CC3)nc(N3CCN(C)CC3)nc2cc1OCc1ccccc1 | 10 µM | 
COc1cc2c(N3CCN(C(=O)c4ccccc4)CC3)nc(N(C)C)nc2cc1OC1CCCC1 | 10 µM | 
CCCNc1nc2c(c(=O)n(C)c(=O)n2C)n1CC(C)C | 660 µM | 
COC(=O)[C@H]1O[C@H](n2cnc3c(N)ncnc32)[C@H](O)[C@@H]1O | > 1000 µM | 
COc1ccc(CNc2nc(N3CCN(C)CC3)c3cc(OC)c(OCc4ccccc4)cc3n2)cc1 |  | 19.9 µM
Nc1ncnc2c1nc(Br)n2C[C@@H](O)CO | 272 µM | 
COc1ccc(CNc2nc(N3CCNCC3)c3cc(OC)c(OCc4ccccc4)cc3n2)cc1 |  | 27.8 µM
COc1cc2c(N(C)C)nc(NCCCN3CCN(C)CC3)nc2cc1OCCCN1CCCC1 |  | > 50 µM
CCN(CC)CCn1cnc2c(=O)oc3ccccc3c21 | 37 µM | 
NCc1ccc(C(=O)Nc2cccc(-c3nc4cc(OCCCN5CCCC5)ccc4o3)c2)cc1 | 66.2 µM | 
COc1ccc(CNc2nc(N3CCN(C4CCCC4)CC3)c3cc(OC)c(OCCCN4CCCC4)cc3n2)cc1 |  | 1.83 µM
CCCCSc1nnc2n(N)c(=O)c3ccccc3n12 | 185 µM | 
CCSc1nc2c(N)ncnc2[nH]1 | 253 µM | 
Nc1ncnc2c1ncn2CCO | 684 µM | 
